Reference: ChEMBL document CHEMBL2375343, “(4-Phenoxyphenyl)tetrazolecarboxamides and related compounds as dual inhibitors of fatty acid amide hydrolase (FAAH) and monoacylglycerol lipase (MAGL)” (Eur J Med Chem, 2013)
Activity calls are given as the source filed them. The calls are words filed in the database; no cut-off is given here.

Experiments:
[1] = target: T1, Fatty-acid amide hydrolase 1 (Rattus norvegicus, UniProt P97612); assay: Inhibition of FAAH in Sprague-Dawley rat brain microsomes assessed as N-(2-hydroxyethyl)-4-pyren-1-ylbutanamide conversion to 4-pyren-1-ylbutanoic acid preincubated for 10 mins measured after 45 mins by HPLC analysis
T1 sequence (P97612 whole entry): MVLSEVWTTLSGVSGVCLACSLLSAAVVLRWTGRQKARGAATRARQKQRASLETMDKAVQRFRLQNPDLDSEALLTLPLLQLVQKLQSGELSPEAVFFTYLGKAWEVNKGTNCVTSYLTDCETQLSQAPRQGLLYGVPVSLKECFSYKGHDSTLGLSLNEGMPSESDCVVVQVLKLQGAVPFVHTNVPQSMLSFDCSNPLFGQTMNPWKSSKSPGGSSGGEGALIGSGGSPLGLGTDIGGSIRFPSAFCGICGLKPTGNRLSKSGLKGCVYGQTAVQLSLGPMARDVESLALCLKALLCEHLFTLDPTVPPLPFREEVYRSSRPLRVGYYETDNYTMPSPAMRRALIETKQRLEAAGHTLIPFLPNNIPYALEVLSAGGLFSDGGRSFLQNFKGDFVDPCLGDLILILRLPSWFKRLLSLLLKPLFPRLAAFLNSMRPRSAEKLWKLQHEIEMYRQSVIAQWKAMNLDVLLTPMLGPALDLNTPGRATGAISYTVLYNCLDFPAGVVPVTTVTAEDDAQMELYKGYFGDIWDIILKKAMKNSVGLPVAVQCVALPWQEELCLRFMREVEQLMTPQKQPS

Monoglyceride lipase [2] = target: T2, Monoglyceride lipase (Homo sapiens, UniProt Q99685); assay: Inhibition of human recombinant MAGL-mediated 1,3-dihydroxypropan-1-yl 4-pyren-1-ylbutanoate conversion to 4-pyren-1-ylbutanoic acid preincubated for 15 mins measured after 45 mins by HPLC analysis
T2 sequence (Q99685 whole entry): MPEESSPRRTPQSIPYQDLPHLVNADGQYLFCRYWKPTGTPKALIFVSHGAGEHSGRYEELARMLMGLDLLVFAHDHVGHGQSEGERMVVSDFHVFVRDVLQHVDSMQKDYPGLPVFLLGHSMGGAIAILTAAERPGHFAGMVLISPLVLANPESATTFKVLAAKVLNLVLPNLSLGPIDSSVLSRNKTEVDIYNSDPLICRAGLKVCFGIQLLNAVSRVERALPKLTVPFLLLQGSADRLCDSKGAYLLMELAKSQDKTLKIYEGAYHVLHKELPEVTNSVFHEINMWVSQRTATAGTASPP

Sus scrofa = species on record: Sus scrofa; assay: Inhibition of cytosolic phospholipase A2alpha in porcine platelets assessed as 1-stearoyl-2-arachidonoyl-sn-glycero-3-phosphocholine conversion to arachidonic acid at 10 uM by HPLC analysis
[3] = Metabolic stability in Wistar rat liver S9 fraction at 20 uM after 30 mins by HPLC analysis; assay type: ADME, subcellular; details: read-out: Stability
[4] = target: T3, Monoglyceride lipase (Homo sapiens) (UniProt Q99685); assay: Inhibition of human recombinant MAGL-mediated 1,3-dihydroxypropan-1-yl 4-pyren-1-ylbutanoate conversion to 4-pyren-1-ylbutanoic acid at 10 uM preincubated for 15 mins measured after 45 mins by HPLC analysis relative to control
T3 sequence (whole entry): T2 sequence (Q99685 whole entry)

[5] = target: T4, Fatty-acid amide hydrolase 1 (Rattus norvegicus) (UniProt P97612); assay: Inhibition of FAAH in Sprague-Dawley rat brain microsomes assessed as N-(2-hydroxyethyl)-4-pyren-1-ylbutanamide conversion to 4-pyren-1-ylbutanoic acid at 10 uM preincubated for 10 mins measured after 45 mins by HPLC analysis relative to control
T4 sequence (whole entry): T1 sequence (P97612 whole entry)

Monoglyceride lipase [6] = target: T5, Monoglyceride lipase (Rattus norvegicus, UniProt Q8R431); assay: Inhibition of MAGL in rat cerebellar membranes; assay type: cell membranes, Membrane
T5 sequence (Q8R431 whole entry): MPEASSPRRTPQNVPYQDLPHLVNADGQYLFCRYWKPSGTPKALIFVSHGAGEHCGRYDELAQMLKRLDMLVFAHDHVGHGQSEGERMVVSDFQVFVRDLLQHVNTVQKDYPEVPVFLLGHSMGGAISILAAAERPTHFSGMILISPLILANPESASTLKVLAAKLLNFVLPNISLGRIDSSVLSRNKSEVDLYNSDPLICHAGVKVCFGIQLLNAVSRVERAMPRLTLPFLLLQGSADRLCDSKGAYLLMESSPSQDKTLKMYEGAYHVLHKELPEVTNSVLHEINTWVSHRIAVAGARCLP

Monoglyceride lipase [7] = target: T2, Monoglyceride lipase; assay: Inhibition of human MAGL expressed in Escherichia coli using 6-methoxy-4-methylcoumarin ester as substrate after 3 hrs by mass spectroscopic analysis
Monoglyceride lipase [8] = target: T5, Monoglyceride lipase; assay: Inhibition of rat MAGL expressed in monkey COS7 cells; assay type: cell-based, COS-7
Monoglyceride lipase [9] = target: T2, Monoglyceride lipase; assay: Inhibition of MAGL (unknown origin)
Monoglyceride lipase [10] = target: T2, Monoglyceride lipase; assay: Inhibition of MAGL (unknown origin) using 4-nitrophenylacetate as substrate
[11] = target: T6, Fatty-acid amide hydrolase 1 (Homo sapiens, UniProt O00519); assay: Inhibition of FAAH (unknown origin)
T6 sequence (O00519 whole entry): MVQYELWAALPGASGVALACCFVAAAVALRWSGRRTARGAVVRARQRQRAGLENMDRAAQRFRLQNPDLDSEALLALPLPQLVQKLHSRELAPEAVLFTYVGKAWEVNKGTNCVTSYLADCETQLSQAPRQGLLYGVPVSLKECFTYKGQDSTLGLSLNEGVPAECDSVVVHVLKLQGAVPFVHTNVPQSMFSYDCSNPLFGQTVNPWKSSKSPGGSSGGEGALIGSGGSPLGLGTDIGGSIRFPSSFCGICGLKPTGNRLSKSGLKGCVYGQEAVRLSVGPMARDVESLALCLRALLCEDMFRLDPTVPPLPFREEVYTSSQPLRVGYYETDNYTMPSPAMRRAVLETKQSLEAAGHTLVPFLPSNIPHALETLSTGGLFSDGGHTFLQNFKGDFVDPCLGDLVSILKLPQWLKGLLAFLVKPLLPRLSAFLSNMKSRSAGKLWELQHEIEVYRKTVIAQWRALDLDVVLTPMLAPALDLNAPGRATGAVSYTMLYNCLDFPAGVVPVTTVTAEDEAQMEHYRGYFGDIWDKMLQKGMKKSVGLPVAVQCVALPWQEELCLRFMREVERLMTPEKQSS

[12] = Selectivity ratio of IC50 for human recombinant MAGL to IC50 for FAAH in Sprague-Dawley rat brain microsomes; details: Microsome

CN(C)C(=O)n1nnc(-c2ccc(-n3cccn3)cc2)n1
IC50 [1]: 8 nM

CN(C)C(=O)n1nnc(Cc2ccc(-c3ccccc3)cc2)n1
IC50 [1]: 12 nM | IC50 (Monoglyceride lipase [2]): 6 nM | inhibition (Sus scrofa): inactive

CCN(CC)C(=O)n1nnc(-c2ccc(Oc3ccccc3)cc2)n1
remaining at 0.5 h, 20 µM [3]: 0% | IC50 [1]: 37 nM

O=C1C=CC(=O)N1c1ccc(Oc2ccccc2)cc1
IC50 [1]: 5300 nM

Cc1cccc(Oc2ccc(-c3nnn(C(=O)N(C)C)n3)cc2)c1
IC50 [1]: 13 nM

CN(C)C(=O)n1nnc(-c2ccc(Oc3cccc(F)c3)cc2)n1
IC50 [1]: 10 nM

CCCCCC(=O)c1cc(C)n(-c2ccc(-c3nnn(C(=O)N(C)C)n3)cc2)c1C
IC50 [1]: 11 nM

O=C1N=C(O)S/C1=C\c1ccc(Oc2ccccc2)cc1
inhibition [4]: inactive | inhibition [5]: inactive

CN(C)C(=O)n1nnc(-c2ccc(Oc3ccccc3)cc2)n1
remaining at 0.5 h, 20 µM [3]: 0% | IC50 [1]: 12 nM | inhibition (Sus scrofa): inactive

CC(=O)c1cc(C)n(-c2ccc(-c3nnn(C(=O)N(C)C)n3)cc2)c1C
IC50 [1]: 9 nM

CN(C)C(=O)n1nnc(Cc2ccc(Oc3ccccc3)cc2)n1
IC50 [1]: 9 nM | inhibition (Sus scrofa): inactive

O=C(NC1CCCCC1)N1CC(c2ccc(Oc3ccccc3)cc2)OC1=O (configuration not stated)
inhibition [4]: inactive | inhibition [5]: inactive

Cc1ccc(C)n1Cc1ccc(-c2nnn(C(=O)N(C)C)n2)cc1
IC50 [1]: 140 nM

CCCCC/C=C\C/C=C\C/C=C\C/C=C\CCCCN1C(=O)C=CC1=O
inhibition [4]: inactive | IC50 (Monoglyceride lipase [6]): 140 nM | inhibition [5]: 38% | IC50 (Monoglyceride lipase [7]): 2800 nM

O=C(CCCCCc1ccccc1)c1nc2ncccc2o1
IC50 [1]: 4 nM | inhibition [4]: inactive

O=c1[nH]c(-c2ccc(Oc3ccccc3)cc2)no1
inhibition [4]: inactive | inhibition [5]: inactive

CN(C)C(=O)n1nnc(-c2ccc(Cn3cccc3)cc2)n1
IC50 [1]: 11 nM

CN(C)C(=O)n1nnnc1-c1ccc(Oc2ccccc2)cc1
IC50 [1]: 7 nM | inhibition (Sus scrofa): inactive

COc1cccc(Oc2ccc(-c3nnn(C(=O)N(C)C)n3)cc2)c1
IC50 [1]: 15 nM

O=C(Oc1ccc([N+](=O)[O-])cc1)N1CCC(C(O)(c2ccc3c(c2)OCO3)c2ccc3c(c2)OCO3)CC1
inhibition [5]: inactive | IC50 (Monoglyceride lipase [8]): 25 nM

CN(C)C(=O)n1nnc(-c2ccc(Cn3ccc4ccccc43)cc2)n1
IC50 [1]: 88 nM

Cc1ccc(C)n1-c1ccc(-c2nnn(C(=O)N(C)C)n2)cc1
IC50 [1]: 9 nM

COc1nn(-c2ccc(NC(=O)OCc3ccccc3)c(C)c2)c(=O)o1
IC50 [1]: 1300 nM | IC50 (Monoglyceride lipase [2]): 480 nM | IC50 (Monoglyceride lipase [9]): 92 nM | IC50 (Monoglyceride lipase [10]): 400 nM | IC50 [11]: 76 nM

O=C1NCC(c2ccc(Oc3ccccc3)cc2)O1 (configuration not stated)
inhibition [4]: inactive | inhibition [5]: inactive

O=C1C=CC(=O)N1Cc1ccc(Oc2ccccc2)cc1
IC50 [1]: 4900 nM | inhibition [4]: 44% | IC50 (Monoglyceride lipase [2]): > 10000 nM

CC(C)N(C(=O)n1nnc(-c2ccc(Oc3ccccc3)cc2)n1)C(C)C
remaining at 0.5 h, 20 µM [3]: 27% | IC50 [1]: > 10000 nM | inhibition [4]: inactive | inhibition [5]: 17%

CN(C)C(=O)n1nnc(-c2ccc(Oc3ccc(Cl)c(Cl)c3)cc2)n1
IC50 [1]: 11 nM

COc1nn(-c2ccc(Oc3ccccc3)cc2)c(=O)o1
IC50 [1]: 720 nM | IC50 (Monoglyceride lipase [2]): 310 nM | IC50 (Monoglyceride lipase [9]): 78 nM | IC50 [11]: 65 nM

CN(C)C(=O)n1nnc(-c2ccc(-n3cccc3)cc2)n1
IC50 [1]: 5 nM

CN(C)C(=O)n1nnc(-c2ccc(Oc3ccc(F)cc3)cc2)n1
IC50 [1]: 14 nM

Cc1ccc(Oc2ccc(-c3nnn(C(=O)N(C)C)n3)cc2)cc1
IC50 [1]: 24 nM

COc1ccc(Oc2ccc(-c3nnn(C(=O)N(C)C)n3)cc2)cc1
IC50 [1]: 13 nM

CN(C)C(=O)n1nnnc1Cc1ccc(-c2ccccc2)cc1
IC50 [1]: 5 nM | IC50 (Monoglyceride lipase [2]): 290 nM | Ratio IC50 [12]: 60 | inhibition (Sus scrofa): inactive

CN(C)C(=O)n1nnc(-c2ccc(Oc3ccc(Cl)cc3)cc2)n1
IC50 [1]: 16 nM

CN(C)C(=O)n1nnnc1Cc1ccc(Oc2ccccc2)cc1
IC50 [1]: 6 nM | inhibition (Sus scrofa): inactive

Cc1cc(C(=O)c2ccccc2)c(C)n1-c1ccc(-c2nnn(C(=O)N(C)C)n2)cc1
IC50 [1]: 16 nM

CN(C)C(=O)n1nnc(-c2ccc(Oc3cccc(Cl)c3)cc2)n1
IC50 [1]: 9 nM

CN(C)C(=O)n1nnc(-c2ccc(-n3ccc4ccccc43)cc2)n1
IC50 [1]: 12 nM

Cc1cc(C(=O)C(C)(C)C)c(C)n1-c1ccc(-c2nnn(C(=O)N(C)C)n2)cc1
IC50 [1]: 29 nM

Cc1cc(C(=O)c2ccc(-c3ccccc3)cc2)c(C)n1-c1ccc(-c2nnn(C(=O)N(C)C)n2)cc1
IC50 [1]: 40 nM
